Experimental data published in US10131652B2, “Pyrimidinyloxy benzene derivatives as herbicides” (E. I. DU PONT DE NEMOURS AND COMPANY, priority 2014, dated 2018).

Assays:
Assay in all cases: Test F pre-/postemergence plant response
Assay type in all cases: in vivo
Conditions in all cases: scale 0 to 100
[1] = tested on: arrowleaf sida (Sida rhombifolia)
Summary of the method: (§1)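 In a greenhouse, compounds carried in a non-phytotoxic surfactant-containing solvent mixture were applied to soil at planting and to young 1- to 4-leaf plants. About two to three weeks (14 to 21 days) afterward, each species was compared with controls and rated visually from 0 to 100.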

[2] = tested on: corn (Zea mays)
Summary of the method: as §1

[3] = tested on: fall panicum (Panicum dichotomiflorum)
Summary of the method: as §1

[4] = tested on: field bindweed (Convolvulus arvensis)
Summary of the method: as §1

[5] = tested on: giant foxtail (Setaria faberii)
Summary of the method: as §1

[6] = tested on: goosegrass (Eleusine indica)
Summary of the method: as §1

[7] = tested on: kochia (Kochia scoparia)
Summary of the method: as §1

[8] = tested on: palmer pigweed (Amaranthus palmeri)
Summary of the method: as §1

[9] = tested on: soybean (Glycine max)
Summary of the method: as §1

[10] = tested on: surinam grass (Brachiaria decumbens)
Summary of the method: as §1

[11] = tested on: velvetleaf (Abutilon theophrasti)
Summary of the method: as §1

CC(F)(F)c1cc(-c2ccccc2Oc2ncc(Br)cn2)no1 [Compound 149]
100: Plant response rating, Arrowleaf Sida ([1]; 125 g ai/ha Preemergence) | Plant response rating, Panicum, Fall ([3]; 125 g ai/ha Preemergence) | Plant response rating, Pigweed, Palmer ([8]; 125 g ai/ha Postemergence) | Plant response rating, Pigweed, Palmer ([8]; 125 g ai/ha Preemergence) | Plant response rating, Pigweed, Palmer ([8]; Preemergence) | Plant response rating, Velvetleaf ([11]; 125 g ai/ha Preemergence)
15: Plant response rating, Corn ([2]; 125 g ai/ha Postemergence) | Plant response rating, Surinam Grass ([10]; 125 g ai/ha Preemergence) | Plant response rating, Surinam Grass ([10]; Preemergence)
25: Plant response rating, Field Bindweed ([4]; 125 g ai/ha Preemergence) | Plant response rating, Pigweed, Palmer ([8]; 16 g ai/ha Preemergence)
40: Plant response rating, Panicum, Fall ([3]; 125 g ai/ha Postemergence) | Plant response rating, Foxtail, Giant ([5]; 62 g ai/ha Preemergence) | Plant response rating, Goosegrass ([6]; Preemergence)
35: Plant response rating, Arrowleaf Sida ([1]; 31 g ai/ha Preemergence) | Plant response rating, Field Bindweed ([4]; 62 g ai/ha Preemergence)
80: Plant response rating, Panicum, Fall ([3]; 31 g ai/ha Preemergence) | Plant response rating, Kochia ([7]; 31 g ai/ha Postemergence)
70: Plant response rating, Velvetleaf ([11]; 31 g ai/ha Preemergence)
60: Plant response rating, Field Bindweed ([4]; 16 g ai/ha Postemergence) | Plant response rating, Goosegrass ([6]; 125 g ai/ha Preemergence) | Plant response rating, Kochia ([7]; 16 g ai/ha Postemergence)
85: Plant response rating, Arrowleaf Sida ([1]; 31 g ai/ha Postemergence) | Plant response rating, Foxtail, Giant ([5]; 125 g ai/ha Preemergence) | Plant response rating, Soybean ([9]; 31 g ai/ha Postemergence) | Plant response rating, Velvetleaf ([11]; Preemergence)
0: Plant response rating, Arrowleaf Sida ([1]; 16 g ai/ha Preemergence) | Plant response rating, Corn ([2]; 16 g ai/ha Postemergence) | Plant response rating, Corn ([2]; 16 g ai/ha Preemergence) | Plant response rating, Corn ([2]; 31 g ai/ha Preemergence) | Plant response rating, Corn ([2]; 62 g ai/ha Preemergence) | Plant response rating, Corn ([2]; 125 g ai/ha Preemergence) | Plant response rating, Panicum, Fall ([3]; 16 g ai/ha Preemergence) | Plant response rating, Field Bindweed ([4]; 16 g ai/ha Preemergence) | Plant response rating, Foxtail, Giant ([5]; 16 g ai/ha Preemergence) | Plant response rating, Goosegrass ([6]; 16 g ai/ha Preemergence) | Plant response rating, Goosegrass ([6]; 31 g ai/ha Preemergence) | Plant response rating, Kochia ([7]; 16 g ai/ha Preemergence) | Plant response rating, Kochia ([7]; 31 g ai/ha Preemergence) | Plant response rating, Soybean ([9]; 16 g ai/ha Preemergence) | Plant response rating, Soybean ([9]; 31 g ai/ha Preemergence) | Plant response rating, Soybean ([9]; Preemergence) | Plant response rating, Surinam Grass ([10]; 16 g ai/ha Preemergence) | Plant response rating, Surinam Grass ([10]; 31 g ai/ha Preemergence)
95: Plant response rating, Arrowleaf Sida ([1]; 62 g ai/ha Postemergence) | Plant response rating, Kochia ([7]; 125 g ai/ha Postemergence) | Plant response rating, Pigweed, Palmer ([8]; 31 g ai/ha Postemergence)
10: Plant response rating, Corn ([2]; 31 g ai/ha Postemergence) | Plant response rating, Corn ([2]; 62 g ai/ha Postemergence) | Plant response rating, Panicum, Fall ([3]; 16 g ai/ha Postemergence) | Plant response rating, Velvetleaf ([11]; 16 g ai/ha Preemergence)
20: Plant response rating, Panicum, Fall ([3]; 31 g ai/ha Postemergence) | Plant response rating, Panicum, Fall ([3]; 62 g ai/ha Postemergence) | Plant response rating, Foxtail, Giant ([5]; 31 g ai/ha Preemergence)
50: Plant response rating, Field Bindweed ([4]; 31 g ai/ha Postemergence) | Plant response rating, Field Bindweed ([4]; 31 g ai/ha Preemergence) | Plant response rating, Field Bindweed ([4]; 62 g ai/ha Postemergence) | Plant response rating, Soybean ([9]; 16 g ai/ha Postemergence)
30: Plant response rating, Soybean ([9]; 125 g ai/ha Preemergence)
98: Plant response rating, Arrowleaf Sida ([1]; 125 g ai/ha Postemergence) | Plant response rating, Panicum, Fall ([3]; Preemergence) | Plant response rating, Pigweed, Palmer ([8]; 62 g ai/ha Postemergence)
90: Plant response rating, Kochia ([7]; 62 g ai/ha Postemergence) | Plant response rating, Kochia ([7]; 125 g ai/ha Preemergence) | Plant response rating, Pigweed, Palmer ([8]; 31 g ai/ha Preemergence) | Plant response rating, Soybean ([9]; 62 g ai/ha Postemergence) | Plant response rating, Soybean ([9]; 125 g ai/ha Postemergence)
65: Plant response rating, Arrowleaf Sida ([1]; 62 g ai/ha Preemergence) | Plant response rating, Pigweed, Palmer ([8]; 16 g ai/ha Postemergence)
75: Plant response rating, Arrowleaf Sida ([1]; 16 g ai/ha Postemergence) | Plant response rating, Field Bindweed ([4]; 125 g ai/ha Postemergence) | Plant response rating, Kochia ([7]; Preemergence)

Fc1cccc(Oc2ncc(Cl)cn2)c1-c1cc(C(F)(F)F)on1 [Compound 168, 5-chloro-2-[2-[5-(trifluoromethyl)-3-isoxazolyl]-3-fluorophenoxy]pyrimidine]
40%: Corn plant response rating (crop injury, 0 = no effect, 100 = complete kill) at 62 g/ha ([2]; Zea mays, pre-emergence, 62 g ai/ha Preemergence) | pest or weed control at 16 g/ha ([4]; Convolvulus arvensis, pre-emergence, 16 g ai/ha Preemergence, read-out: Plant response rating, Field Bindweed) | plant injury at 125 g/ha ([9]; Glycine max, pre-emergence, 125 g ai/ha Preemergence, read-out: Plant response rating, Soybean)
65%: pest or weed control at 16 g/ha ([5]; Setaria faberi, pre-emergence, 16 g ai/ha Preemergence, read-out: Plant response rating, Foxtail, Giant) | pest or weed control at 31 g/ha ([10]; Urochloa decumbens, pre-emergence, 31 g ai/ha Preemergence, read-out: Plant response rating, Surinam Grass)
100%: pest or weed control at 31 g/ha ([1]; Sida rhombifolia, pre-emergence, 31 g ai/ha Preemergence, read-out: Plant response rating, Arrowleaf Sida) | pest or weed control at 62 g/ha ([1]; Sida rhombifolia, pre-emergence, 62 g ai/ha Preemergence, read-out: Plant response rating, Arrowleaf Sida) | pest or weed control at 125 g/ha ([1]; Sida rhombifolia, pre-emergence, 125 g ai/ha Preemergence, read-out: Plant response rating, Arrowleaf Sida) | pest or weed control at 125 g/ha ([3]; Panicum dichotomiflorum, pre-emergence, 125 g ai/ha Preemergence, read-out: Plant response rating, Panicum, Fall) | pest or weed control at 62 g/ha ([3]; Panicum dichotomiflorum, pre-emergence, Preemergence, read-out: Plant response rating, Panicum, Fall) | pest or weed control at 62 g/ha ([5]; Setaria faberi, pre-emergence, 62 g ai/ha Preemergence, read-out: Plant response rating, Foxtail, Giant) | pest or weed control at 125 g/ha ([5]; Setaria faberi, pre-emergence, 125 g ai/ha Preemergence, read-out: Plant response rating, Foxtail, Giant) | pest or weed control at 125 g/ha ([6]; Eleusine indica, pre-emergence, 125 g ai/ha Preemergence, read-out: Plant response rating, Goosegrass) | pest or weed control at 31 g/ha ([7]; Bassia scoparia, pre-emergence, 31 g ai/ha, Preemergence, read-out: Plant response rating, Kochia) | pest or weed control at 125 g/ha ([7]; Bassia scoparia, pre-emergence, 125 g ai/ha, Preemergence, read-out: Plant response rating, Kochia) | pest or weed control at 62 g/ha ([7]; Bassia scoparia, pre-emergence, Preemergence, read-out: Plant response rating, Kochia) | pest or weed control at 31 g/ha ([8]; Amaranthus palmeri, pre-emergence, 31 g ai/ha Preemergence, read-out: Plant response rating, Pigweed, Palmer) | pest or weed control at 125 g/ha ([8]; Amaranthus palmeri, pre-emergence, 125 g ai/ha Preemergence, read-out: Plant response rating, Pigweed, Palmer) | pest or weed control at 62 g/ha ([8]; Amaranthus palmeri, pre-emergence, Preemergence, read-out: Plant response rating, Pigweed, Palmer) | pest or weed control at 125 g/ha ([10]; Urochloa decumbens, pre-emergence, 125 g ai/ha Preemergence, read-out: Plant response rating, Surinam Grass) | pest or weed control at 125 g/ha ([11]; Abutilon theophrasti, pre-emergence, 125 g ai/ha Preemergence, read-out: Plant response rating, Velvetleaf) | pest or weed control at 62 g/ha ([11]; Abutilon theophrasti, pre-emergence, Preemergence, read-out: Plant response rating, Velvetleaf)
98%: pest or weed control at 31 g/ha ([5]; Setaria faberi, pre-emergence, 31 g ai/ha Preemergence, read-out: Plant response rating, Foxtail, Giant) | pest or weed control at 62 g/ha ([6]; Eleusine indica, pre-emergence, Preemergence, read-out: Plant response rating, Goosegrass) | pest or weed control at 16 g/ha ([8]; Amaranthus palmeri, pre-emergence, 16 g ai/ha Preemergence, read-out: Plant response rating, Pigweed, Palmer)
95%: pest or weed control at 16 g/ha ([1]; Sida rhombifolia, pre-emergence, 16 g ai/ha Preemergence, read-out: Plant response rating, Arrowleaf Sida) | pest or weed control at 31 g/ha ([3]; Panicum dichotomiflorum, pre-emergence, 31 g ai/ha Preemergence, read-out: Plant response rating, Panicum, Fall) | pest or weed control at 31 g/ha ([6]; Eleusine indica, pre-emergence, 31 g ai/ha Preemergence, read-out: Plant response rating, Goosegrass) | pest or weed control at 16 g/ha ([7]; Bassia scoparia, pre-emergence, 16 g ai/ha, Preemergence, read-out: Plant response rating, Kochia)
70%: pest or weed control at 125 g/ha ([4]; Convolvulus arvensis, pre-emergence, 125 g ai/ha Preemergence, read-out: Plant response rating, Field Bindweed) | pest or weed control at 62 g/ha ([10]; Urochloa decumbens, pre-emergence, Preemergence, read-out: Plant response rating, Surinam Grass)
35%: Corn plant response rating (crop injury, 0 = no effect, 100 = complete kill) at 125 g/ha ([2]; Zea mays, pre-emergence, 125 g ai/ha Preemergence) | pest or weed control at 16 g/ha ([3]; Panicum dichotomiflorum, pre-emergence, 16 g ai/ha Preemergence, read-out: Plant response rating, Panicum, Fall) | pest or weed control at 16 g/ha ([11]; Abutilon theophrasti, pre-emergence, 16 g ai/ha Preemergence, read-out: Plant response rating, Velvetleaf)
20%: plant injury at 62 g/ha ([9]; Glycine max, pre-emergence, Preemergence, read-out: Plant response rating, Soybean)
60%: pest or weed control at 31 g/ha ([4]; Convolvulus arvensis, pre-emergence, 31 g ai/ha Preemergence, read-out: Plant response rating, Field Bindweed)
80%: pest or weed control at 16 g/ha ([6]; Eleusine indica, pre-emergence, 16 g ai/ha Preemergence, read-out: Plant response rating, Goosegrass)
0%: Corn plant response rating (crop injury, 0 = no effect, 100 = complete kill) at 16 g/ha ([2]; Zea mays, pre-emergence, 16 g ai/ha Preemergence) | Corn plant response rating (crop injury, 0 = no effect, 100 = complete kill) at 31 g/ha ([2]; Zea mays, pre-emergence, 31 g ai/ha Preemergence) | plant injury at 16 g/ha ([9]; Glycine max, pre-emergence, 16 g ai/ha Preemergence, read-out: Plant response rating, Soybean) | plant injury at 31 g/ha ([9]; Glycine max, pre-emergence, 31 g ai/ha Preemergence, read-out: Plant response rating, Soybean)
50%: pest or weed control at 62 g/ha ([4]; Convolvulus arvensis, pre-emergence, 62 g ai/ha Preemergence, read-out: Plant response rating, Field Bindweed) | pest or weed control at 16 g/ha ([10]; Urochloa decumbens, pre-emergence, 16 g ai/ha Preemergence, read-out: Plant response rating, Surinam Grass)
75%: pest or weed control at 31 g/ha ([11]; Abutilon theophrasti, pre-emergence, 31 g ai/ha Preemergence, read-out: Plant response rating, Velvetleaf)
